# Test system: C. parvum
# Experiment: not given
# Type: cell-based, Cryptosporidium parvum
# Settings: compound at EC90; average of replicates
row,SMILES,"Invasion Assay: Mean % Inhibition (parasites), Average [%]"
1,CCC(C)n1ncn(-c2ccc(N3CCN(c4ccc(OCC5COC(Cn6cncn6)(c6ccc(Cl)cc6Cl)O5)cc4)CC3)cc2)c1=O (stereo not shown) [Itraconazole],-29.72
2,CSc1ccccc1C(=O)Nc1nc(-c2ccccn2)cs1 [MMV001246],-7.41
3,O=C(Nc1nc(-c2ccccn2)cs1)c1ccccc1Br [MMV665909],-12.01
4,Cc1cn(-c2cc(NC(=O)c3ccc(C)c(Nc4nccc(-c5cccnc5)n4)c3)cc(C(F)(F)F)c2)cn1 [Nilotinib],-21.88

# Same assay, conditions: compound at EC90; single biological replicate 1
row,SMILES,"Invasion Assay: Mean % Inhibition (parasites), Replicate 1a [%]"
1,CCC(C)n1ncn(-c2ccc(N3CCN(c4ccc(OCC5COC(Cn6cncn6)(c6ccc(Cl)cc6Cl)O5)cc4)CC3)cc2)c1=O (stereo not shown) [Itraconazole],-31
2,CSc1ccccc1C(=O)Nc1nc(-c2ccccn2)cs1 [MMV001246],-15
3,O=C(Nc1nc(-c2ccccn2)cs1)c1ccccc1Br [MMV665909],-8.54
4,Cc1cn(-c2cc(NC(=O)c3ccc(C)c(Nc4nccc(-c5cccnc5)n4)c3)cc(C(F)(F)F)c2)cn1 [Nilotinib],-24

# Same assay, conditions: compound at EC90; single biological replicate 2
row,SMILES,"Invasion Assay: Mean % Inhibition (parasites), Replicate 2a [%]"
1,CCC(C)n1ncn(-c2ccc(N3CCN(c4ccc(OCC5COC(Cn6cncn6)(c6ccc(Cl)cc6Cl)O5)cc4)CC3)cc2)c1=O (stereo not shown) [Itraconazole],-28
2,CSc1ccccc1C(=O)Nc1nc(-c2ccccn2)cs1 [MMV001246],0.521
3,O=C(Nc1nc(-c2ccccn2)cs1)c1ccccc1Br [MMV665909],-15
4,Cc1cn(-c2cc(NC(=O)c3ccc(C)c(Nc4nccc(-c5cccnc5)n4)c3)cc(C(F)(F)F)c2)cn1 [Nilotinib],-19

# Test system: C. parvum
# Experiment: DNA replication assay (EdU incorporation)
# Type: cell-based, Cryptosporidium parvum
# Settings: compound at EC90; average of replicates
row,SMILES,"DNA Synthesis Assay: Mean % Inhibition of EdU-labeling (normalized to parasite numbers), Average [%]"
1,CCC(C)n1ncn(-c2ccc(N3CCN(c4ccc(OCC5COC(Cn6cncn6)(c6ccc(Cl)cc6Cl)O5)cc4)CC3)cc2)c1=O (stereo not shown) [Itraconazole],-4.89
2,CSc1ccccc1C(=O)Nc1nc(-c2ccccn2)cs1 [MMV001246],72.11
3,O=C(Nc1nc(-c2ccccn2)cs1)c1ccccc1Br [MMV665909],90.80
4,Cc1cn(-c2cc(NC(=O)c3ccc(C)c(Nc4nccc(-c5cccnc5)n4)c3)cc(C(F)(F)F)c2)cn1 [Nilotinib],22.05

# Same assay, conditions: compound at EC90; single replicate 1
row,SMILES,"DNA Synthesis Assay: Mean % Inhibition of EdU-labeling (normalized to parasite numbers), Replicate 1 [%]"
1,CCC(C)n1ncn(-c2ccc(N3CCN(c4ccc(OCC5COC(Cn6cncn6)(c6ccc(Cl)cc6Cl)O5)cc4)CC3)cc2)c1=O (stereo not shown) [Itraconazole],6.01
2,CSc1ccccc1C(=O)Nc1nc(-c2ccccn2)cs1 [MMV001246],57.69
3,O=C(Nc1nc(-c2ccccn2)cs1)c1ccccc1Br [MMV665909],100.00
4,Cc1cn(-c2cc(NC(=O)c3ccc(C)c(Nc4nccc(-c5cccnc5)n4)c3)cc(C(F)(F)F)c2)cn1 [Nilotinib],29.68

# Same assay, conditions: compound at EC90; single replicate 2
row,SMILES,"DNA Synthesis Assay: Mean % Inhibition of EdU-labeling (normalized to parasite numbers), Replicate 2 [%]"
1,CCC(C)n1ncn(-c2ccc(N3CCN(c4ccc(OCC5COC(Cn6cncn6)(c6ccc(Cl)cc6Cl)O5)cc4)CC3)cc2)c1=O (stereo not shown) [Itraconazole],-18.49
2,CSc1ccccc1C(=O)Nc1nc(-c2ccccn2)cs1 [MMV001246],70.62
3,O=C(Nc1nc(-c2ccccn2)cs1)c1ccccc1Br [MMV665909],100.00
4,Cc1cn(-c2cc(NC(=O)c3ccc(C)c(Nc4nccc(-c5cccnc5)n4)c3)cc(C(F)(F)F)c2)cn1 [Nilotinib],14.41

# Same assay, conditions: compound at EC90; single replicate 3
row,SMILES,"DNA Synthesis Assay: Mean % Inhibition of EdU-labeling (normalized to parasite numbers), Replicate 3 [%]"
1,CCC(C)n1ncn(-c2ccc(N3CCN(c4ccc(OCC5COC(Cn6cncn6)(c6ccc(Cl)cc6Cl)O5)cc4)CC3)cc2)c1=O (stereo not shown) [Itraconazole],-2.19
2,CSc1ccccc1C(=O)Nc1nc(-c2ccccn2)cs1 [MMV001246],88.02
3,O=C(Nc1nc(-c2ccccn2)cs1)c1ccccc1Br [MMV665909],80.23

# Same assay, conditions: compound at EC90; single replicate 4
row,SMILES,"DNA Synthesis Assay: Mean % Inhibition of EdU-labeling (normalized to parasite numbers), Replicate 4 [%]"
1,O=C(Nc1nc(-c2ccccn2)cs1)c1ccccc1Br [MMV665909],80.99

# Same assay, conditions: compound at EC90; single replicate 5
row,SMILES,"DNA Synthesis Assay: Mean % Inhibition of EdU-labeling (normalized to parasite numbers), Replicate 5 [%]"
1,O=C(Nc1nc(-c2ccccn2)cs1)c1ccccc1Br [MMV665909],92.80

# Test system: C. parvum DMC1 expression
# Experiment: Sexual differentiation assay (DMC1 expression)
# Type: cell-based, Cryptosporidium parvum
# Settings: compound at asexual EC90, 48-72 h; average of replicates
# Outline: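 Compounds applied at their previously determined asexual-assay EC90, and % inhibition of DMC1 expression reported. Readout: 4% paraformaldehyde fixation, immunostaining with mAb 1H10G7 plus fluorescein-lectin and Hoechst, tiled 20× imaging in 384-well format, ImageJ analysis counting lectin-positive then DMC1-positive parasites.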
row,SMILES,"Asexual to sexual differentiation: Mean % DMC1 inhibition (normalized to host nuclei), Average [%]"
1,CCC(C)n1ncn(-c2ccc(N3CCN(c4ccc(OCC5COC(Cn6cncn6)(c6ccc(Cl)cc6Cl)O5)cc4)CC3)cc2)c1=O (stereo not shown) [Itraconazole],63.93
2,CSc1ccccc1C(=O)Nc1nc(-c2ccccn2)cs1 [MMV001246],45.66
3,O=C(Nc1nc(-c2ccccn2)cs1)c1ccccc1Br [MMV665909],53.05
4,Cc1cn(-c2cc(NC(=O)c3ccc(C)c(Nc4nccc(-c5cccnc5)n4)c3)cc(C(F)(F)F)c2)cn1 [Nilotinib],70.96

# Same assay, conditions: compound at asexual EC90, 48-72 h; single replicate 1
row,SMILES,"Asexual to sexual differentiation: Mean % DMC1 inhibition (normalized to host nuclei), Replicate 1a [%]"
1,CCC(C)n1ncn(-c2ccc(N3CCN(c4ccc(OCC5COC(Cn6cncn6)(c6ccc(Cl)cc6Cl)O5)cc4)CC3)cc2)c1=O (stereo not shown) [Itraconazole],87.85
2,CSc1ccccc1C(=O)Nc1nc(-c2ccccn2)cs1 [MMV001246],48.08
3,O=C(Nc1nc(-c2ccccn2)cs1)c1ccccc1Br [MMV665909],56.13
4,Cc1cn(-c2cc(NC(=O)c3ccc(C)c(Nc4nccc(-c5cccnc5)n4)c3)cc(C(F)(F)F)c2)cn1 [Nilotinib],66.12

# Same assay, conditions: compound at asexual EC90, 48-72 h; single replicate 2
row,SMILES,"Asexual to sexual differentiation: Mean % DMC1 inhibition (normalized to host nuclei), Replicate 2a [%]"
1,CCC(C)n1ncn(-c2ccc(N3CCN(c4ccc(OCC5COC(Cn6cncn6)(c6ccc(Cl)cc6Cl)O5)cc4)CC3)cc2)c1=O (stereo not shown) [Itraconazole],40.00
2,CSc1ccccc1C(=O)Nc1nc(-c2ccccn2)cs1 [MMV001246],43.24
3,O=C(Nc1nc(-c2ccccn2)cs1)c1ccccc1Br [MMV665909],49.96
4,Cc1cn(-c2cc(NC(=O)c3ccc(C)c(Nc4nccc(-c5cccnc5)n4)c3)cc(C(F)(F)F)c2)cn1 [Nilotinib],75.79

# Test system: C. parvum
# Experiment: Egress, motility, reinvasion assay (PV ratio)
# Settings: compound at EC90; average of replicates
# Method: For quantification of parasitophorous vacuoles over time, HCT-8 cells were grown to greater than 90% confluence in 384-well plates and infected with 11,000 oocysts after triggering excystation.
row,SMILES,"Egress and Reinvasion Assay: Mean PV ratios (19.5h:6h), Average"
1,CCC(C)n1ncn(-c2ccc(N3CCN(c4ccc(OCC5COC(Cn6cncn6)(c6ccc(Cl)cc6Cl)O5)cc4)CC3)cc2)c1=O (stereo not shown) [Itraconazole],1.77
2,CSc1ccccc1C(=O)Nc1nc(-c2ccccn2)cs1 [MMV001246],0.43
3,O=C(Nc1nc(-c2ccccn2)cs1)c1ccccc1Br [MMV665909],0.41
4,Cc1cn(-c2cc(NC(=O)c3ccc(C)c(Nc4nccc(-c5cccnc5)n4)c3)cc(C(F)(F)F)c2)cn1 [Nilotinib],1.05

# Same assay, conditions: compound at EC90; single replicate 1
row,SMILES,"Egress and Reinvasion Assay: Mean PV ratios (19.5h:6h), Replicate 1a"
1,CCC(C)n1ncn(-c2ccc(N3CCN(c4ccc(OCC5COC(Cn6cncn6)(c6ccc(Cl)cc6Cl)O5)cc4)CC3)cc2)c1=O (stereo not shown) [Itraconazole],2.21
2,CSc1ccccc1C(=O)Nc1nc(-c2ccccn2)cs1 [MMV001246],0.60
3,O=C(Nc1nc(-c2ccccn2)cs1)c1ccccc1Br [MMV665909],0.61
4,Cc1cn(-c2cc(NC(=O)c3ccc(C)c(Nc4nccc(-c5cccnc5)n4)c3)cc(C(F)(F)F)c2)cn1 [Nilotinib],1.50

# Same assay, conditions: compound at EC90; single replicate 2
row,SMILES,"Egress and Reinvasion Assay: Mean PV ratios (19.5h:6h), Replicate 2a"
1,CCC(C)n1ncn(-c2ccc(N3CCN(c4ccc(OCC5COC(Cn6cncn6)(c6ccc(Cl)cc6Cl)O5)cc4)CC3)cc2)c1=O (stereo not shown) [Itraconazole],1.33
2,CSc1ccccc1C(=O)Nc1nc(-c2ccccn2)cs1 [MMV001246],0.25
3,O=C(Nc1nc(-c2ccccn2)cs1)c1ccccc1Br [MMV665909],0.21
4,Cc1cn(-c2cc(NC(=O)c3ccc(C)c(Nc4nccc(-c5cccnc5)n4)c3)cc(C(F)(F)F)c2)cn1 [Nilotinib],1.54

# Same assay, conditions: compound at EC90; single replicate 3
row,SMILES,"Egress and Reinvasion Assay: Mean PV ratios (19.5h:6h), Replicate 3a"
1,Cc1cn(-c2cc(NC(=O)c3ccc(C)c(Nc4nccc(-c5cccnc5)n4)c3)cc(C(F)(F)F)c2)cn1 [Nilotinib],0.60

# Same assay, conditions: compound at EC90; single replicate 4
row,SMILES,"Egress and Reinvasion Assay: Mean PV ratios (19.5h:6h), Replicate 4a"
1,Cc1cn(-c2cc(NC(=O)c3ccc(C)c(Nc4nccc(-c5cccnc5)n4)c3)cc(C(F)(F)F)c2)cn1 [Nilotinib],0.54

# — publication PMC6478823, “A suite of phenotypic assays to ensure pipeline diversity when prioritizing drug-like Cryptosporidium growth inhibitors” (Nature Communications, 2019)
